Data as given in patent US8754257B2, “Pharmaceutical-grade ferric organic compounds, uses thereof and methods of making same” (GloboAsia, LLC, priority 2003, dated 2014).
Entries after “also recorded” stand apart in the source; their conditions may differ.

Experiments:
[1] = test system: patients with kidney disease; settings: patients with kidney disease receiving doses of ferric citrate; cited from earlier work
[2] = test system: patients with End Stage Renal Disease (ESRD); settings: cited from earlier work
[3] = Intrinsic dissolution rate of ferric citrate; assay type: physicochemical; settings: for Intrinsic Dissolution Rates: 37° C., solutions of pH 8
Description: The intrinsic dissolution rate is defined as the dissolution rate of pure substances under the condition of constant surface area. […] The measured intrinsic dissolution rate is dependent on these solid-state properties and is typically determined by exposing a constant surface area of a material to an appropriate dissolution medium while maintaining constant temperature, stirring rate, and pH.

[4] = BET active surface area measurement; assay type: physicochemical; settings: for BET Active Surface Area: Table 2, one value per pair of samples -1/-2
Method: The analysis of active surface area is based on BET theory which describes the phenomenon of mass and energy interaction and phase changes during as adsorption onto solid surfaces and in pore spaces. In BET active surface area measurement, the volume of a monolayer of gas is determined which allows the surface area of the sample to be determined using the area occupied by a single layer of adsorbed gas molecule.

[5] = test system: patients; experiment: Clinical study of pharmaceutical-grade ferric citrate in patients in vivo; design: species or system human
Method: Ferric citrate is supplied in 500 mg capsules, whereas the placebo will be provided in identical-looking capsules (indistinguishable from those containing the active drug); the placebo capsules will contain sorbitol and colorant to match the powder color of the active capsules. The placebo capsule shells will be identical to the active capsule shells.
An non-limiting example of a dosing regimen is provided below. This is not meant to limit the invention as to how an effective amount of ferric citrate is selected, or the form in which it is provided or the frequency of administering the composition per day. The following merely illustrates how ferric citrate and placebo may be administered; e.g., as 500 mg capsules of identical appearance. All patients may receive (in a blinded fashion) 4 capsules with each of three meals, on a daily basis, for 28 days. Patients will be instructed to take the study medication within 10 minutes of finishing their meals (breakfast, lunch, and dinner).
• 4 placebo capsules, with breakfast. • 4 placebo capsules, with lunch. • 4 placebo capsules with dinner Ferric Citrate 2 g Per Day Arm of the Study • 1 ferric citrate capsule and 3 placebo capsules with breakfast • 1 ferric citrate capsule and 3 placebo capsules with lunch • 2 ferric citrate capsules and 2 placebo capsules with dinner Ferric Citrate 4 g Per Day Arm • 2 ferric citrate capsules and 2 placebo capsules with breakfast • 3 ferric citrate capsule and 1 placebo capsule with lunch • 3 ferric citrate capsules and 1 placebo capsule with dinner Ferric Citrate 6 g Per Day Arm • 4 ferric citrate capsules with breakfast • 4 ferric citrate capsules with lunch • 4 ferric citrate capsules with dinner B. Clinical Schedule and Assessments Duration of Study Treatment
Each patient's participation in the trial lasts for up to 8 weeks: the screening period (approximately 1-2 weeks), a 1-2 week washout, and 4 weeks of treatment with study medication.
The following procedures will be performed at the first screening visit: • 1. Medical history, including concomitant medications. • 2. Demographic data • 3. Physical examination, including height, weight, and vital signs. • 4. Dietary interview, using 24 hour recall method, to assess dietary intake of calcium and phosphorous, three times during screening period, to include one dialysis day, one non-dialysis day, and one weekend day. Note: Dietary interview may be also performed, in part or in whole, during the washout period. • 5. […]

## ferric citrate
[1]
  calcium deposits on the eye: reversal of calcium deposits on the eye
[2]; 3 g daily
  GI symptoms: mild, hut tolerable GI symptoms
  change in serum P04: significant decrease in serum P04
[2]
  efficacy in reducing serum P04 compared with calcium carbonate (3 g daily): not as effective as calcium carbonate

## ferric citrate [PAN031203A]
[3]
  Intrinsic Dissolution Rates: 3.82 mg/cm2/min

## ferric citrate [PAN031203B]
[3]
  Intrinsic Dissolution Rates: 4.00 mg/cm2/min

## ferric citrate [PAN031203C]
[3]
  Intrinsic Dissolution Rates: 2.68 mg/cm2/min

## ferric citrate [PAN031203D]
[3]
  Intrinsic Dissolution Rates: 2.95 mg/cm2/min

## ferric citrate [PAN031203E]
[3]
  Intrinsic Dissolution Rates: 3.13 mg/cm2/min

## ferric citrate [RFS-12-1, reference compound]
[4]
  BET Active Surface Area: 0.61

## ferric citrate [STM-134-1]
[4]
  BET Active Surface Area: 16.17

## ferric citrate [STM-134]
[3]
  Intrinsic Dissolution Rates: 1.88 mg/cm2/min

## ferric citrate [STM-182-1]
[4]
  BET Active Surface Area: 19.85

## ferric citrate [ferric citrate of the present invention]
[5]; FIG. 12
  adverse side effects compared with placebo: not statistically different from chose associated with the placebo
[5]; oral capsules, FIG. 12, listed as pharmaceutical grade ferric citrate
  adverse side effects / safety profile compared with chemical grade ferric citrate: less adverse clinical effects; also recorded: significantly more desirable safety profile
[5]; oral capsules, FIG. 12, listed as pharmaceutical-grade ferric citrate
  adverse side effects / safety profile compared with chemical grade ferric citrate: less adverse side effects than chemical grade ferric citrate
[5]; oral capsules, FIG. 13, listed as pharmaceutical-grade ferric citrate
  efficacy compared with chemical grade ferric citrate: approximately equal so that of chemical grade ferric citrate
[4]
  BET active surface area relative to commercially available ferric citrate: at least 16 times
[3]; experiment simulating the alkaline condition in the small intestine
  dissolution rate compared with commercially available ferric citrate: better dissolution rate than the commercially available ferric citrate
[3]; pH 8.0
  intrinsic dissolution rate relative to commercially available ferric citrate: 3.08 times
